# Reference: patent US20250312499A1, “KISSPEPTIN RECEPTOR (KISS1R) TARGETED THERAPEUTICS AND USES THEREOF” (priority 2024, published 2025)
# Numbered stars: 1 amine (or outer) side, 2 acyl side, 3 side chain; on linkers, the order of the positions; unused ones are H or OH. Square brackets hold non-standard residues; d marks the D form. Peptide text beside a SMILES is read from it. * marks the point of attachment. DOTA = O=C(O)CN1CCN(CC(=O)O)CCN(CC(=O)*)CCN(CC(=O)O)CC1; Gly(N-(3-F-4-Me-benzyl)) = Cc1ccc(CNCC(=O)*)cc1F; Api(1-amidino) = N=C(N)N1CCC(N)(C(=O)O)CC1; X3 = CNC(=N)N1CCC(N[*:1])(C(=O)[*:2])CC1; Phe(3-F) = N[C@@H](Cc1cccc(F)c1)C(=O)O; d2Nal = N[C@H](Cc1ccc2ccccc2c1)C(=O)O; Trx = NC[C@H]1CC[C@H](C(=O)O)CC1; X1 = O=C(CN1CCC(N[*:1])CC1)[*:2]; dCya = N[C@H](CS(=O)(=O)O)C(=O)O; 4Pal = N[C@@H](Cc1ccncc1)C(=O)O; d4Pal = N[C@H](Cc1ccncc1)C(=O)O; X5 = O=C(CNCc1ccc2ccccc2c1)*; Lauroyl = CCCCCCCCCCCC(=O)*; Api = NC1(C(=O)O)CCNCC1; Ahx = NCCCCCC(=O)O; azaGly = NNC(=O)O; Sar = CNCC(=O)O
# Target: human kisspeptin receptor (Homo sapiens (Human), UniProt Q969F8)
# Assay: Human KISS1R binding assay (membrane competition binding)
# Details: 90 min at room temperature; competition with 0.2 nM [125I]-metastin (45-54); Flp-In T-Rex 293 kisspeptin membranes; metal complexes nonradioactive Ga, In, Lu; read-out: hKiSSR Binding Ki (90 min)
# Method: Crude membrane fractions are prepared from Flp-In T-Rex 293 (Thermo Fisher) cell line expressing the human kisspeptin receptor. The cells are grown to 85-100% confluence on standard tissue culture dishes in Dulbecco's Modified Eagles Medium (DMEM) (Corning) supplemented with 10% FBS (Gemini), 1% penicillin-streptomycin-glutamine (Gibco), 500 μg/mL hygromycin, and 15 μg/mL blastacidin. 48 hrs prior to preparing membranes 10 μg/ml of tetracycline is added to the culture media to induce receptor expression. To prepare membranes, cells are scraped and collected in 1× Dulbecco's phosphate buffered saline (Corning) and then pelleted at 1000 RPMs. The cell pellet is reconstituted in membrane preparation buffer (20 mM HEPES, 6 mM MgCl2 and 1 mM EGTA, protease inhibitor tablets (Pierce), pH 7.4) and placed in a cell disruption vessel (Parr Instrument company) at 1000 PSI for 30 min on ice. The pressurized contents are then released and spun down at 1000 RPMs and the supernatant is collected and further centrifuged at 15,000 RPMs to pellet the membranes. The membrane pellet is resuspended in membrane preparation buffer, snap frozen and stored at −80° C. for later use.
# The human kisspeptin membrane binding assay utilizes the following components: radiolabel [^125I]-metastin (45-54) (human) (Perkinhmer), crude Flp-In T-Rex 293 kisspeptin membranes, and competing small molecule and peptide ligands. The assay is initiated by combining in assay buffer (50 mM TrisHCl, 5 mM MgCl2, 2 mM EGTA, 10 mM CaCl2, 0.1% BSA, pH 7.4) a dose response of competing ligand (final concentrations are typically 0-10,000 nM), 5-10 μg of Flp-In T-Rex 293 kisspeptin membranes, and 0.2 n M [^125I]-metastin (45-54) in a 96-well assay plate and allowed to incubate 90 minutes at room temperature. Assay contents are then filtered through unifilter CF/C: microplates (PerkinElmer) pre-soaked with 0.5% BSA and washed with 9×400 μL of cold wash buffer (10 mM HEPES, 500 mM NaCl, 0.1% Tween-20, pH7.4). Assay plates are read using a Microbeta^2 (PerkinElmer) and Ki values for compounds are determined using a GraphPad Prism 9.3 non-linear regression analysis.
# Chain of human kisspeptin receptor (Q969F8 whole entry): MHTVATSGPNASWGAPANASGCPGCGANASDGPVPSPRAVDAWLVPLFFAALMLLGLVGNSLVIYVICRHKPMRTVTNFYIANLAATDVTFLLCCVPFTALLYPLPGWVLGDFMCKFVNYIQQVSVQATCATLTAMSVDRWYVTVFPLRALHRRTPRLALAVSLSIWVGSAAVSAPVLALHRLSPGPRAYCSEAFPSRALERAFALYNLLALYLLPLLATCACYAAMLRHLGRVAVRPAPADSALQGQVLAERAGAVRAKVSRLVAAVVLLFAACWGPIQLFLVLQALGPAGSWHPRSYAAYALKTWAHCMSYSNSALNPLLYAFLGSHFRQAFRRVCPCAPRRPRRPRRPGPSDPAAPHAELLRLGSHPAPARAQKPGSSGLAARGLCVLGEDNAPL
row,SMILES,Ki
1,Cc1ccc(CNCC(=O)N2CCC(NC(=O)[C@H](CC(C)C)NC(=O)NNC(=O)[C@H](Cc3cccc(F)c3)NC(=O)[C@@H](NC(=O)[C@H](CC(N)=O)NC(=O)[C@H](CCCCN)NC(=O)CN3CCC(NC(=O)CN4CCN(CC(=O)O)CCN(CC(=O)O)CCN(CC(=O)O)CC4)CC3)[C@@H](C)O)(C(=O)N[C@@H](Cc3c[nH]c4ccccc34)C(N)=O)CC2)cc1F [Compound 164] ({DOTA}-[X1]KNT[Phe(3-F)][azaGly]L[Api](Gly(N-(3-F-4-Me-benzyl)))W-NH2),< 10 nM
2,CC(C)C[C@H](NC(=O)NNC(=O)[C@H](Cc1ccccc1)NC(=O)[C@@H](NC(=O)[C@H](CC(N)=O)NC(=O)[C@H](Cc1ccncc1)NC(=O)[C@@H](Cc1ccc(O)cc1)NC(=O)CN1CCN(CC(=O)O)CCN(CC(=O)O)CCN(CC(=O)O)CC1)[C@@H](C)O)C(=O)NC1(C(=O)N[C@@H](Cc2ccncc2)C(N)=O)CCN(C(=N)N)CC1 [Compound 273] ({DOTA}-[dY][4Pal]NTF[azaGly]L[Api(1-amidino)][4Pal]-NH2),10 to 100 nM
3,Cc1ccc(CNCC(=O)N2CCC(NC(=O)[C@H](CC(C)C)NC(=O)NNC(=O)[C@H](Cc3ccccc3)NC(=O)CCCCCNC(=O)[C@@H](Cc3ccncc3)NC(=O)[C@@H](Cc3ccc(O)cc3)NC(=O)CN3CCN(CC(=O)O)CCN(CC(=O)O)CCN(CC(=O)O)CC3)(C(=O)N[C@@H](Cc3c[nH]c4ccccc34)C(N)=O)CC2)cc1F [Compound 186] ({DOTA}-[dY][d4Pal][Ahx]F[azaGly]L[Api](Gly(N-(3-F-4-Me-benzyl)))W-NH2),< 10 nM
4,Cc1ccc(CNCC(=O)N2CCC(NC(=O)[C@H](CC(C)C)NC(=O)NNC(=O)[C@H](Cc3ccccc3)NC(=O)CCCCCNC(=O)[C@@H](CS(=O)(=O)O)NC(=O)CN3CCN(CC(=O)O)CCN(CC(=O)O)CCN(CC(=O)O)CC3)(C(=O)N[C@@H](Cc3c[nH]c4ccccc34)C(N)=O)CC2)cc1F [Compound 116] ({DOTA}-[dCya][Ahx]F[azaGly]L[Api](Gly(N-(3-F-4-Me-benzyl)))W-NH2),< 10 nM
5,Cc1ccc(CNCC(=O)N2CCC(NC(=O)[C@H](CC(C)C)NC(=O)NNC(=O)[C@H](Cc3ccccc3)NC(=O)[C@H]3CC[C@H](CNC(=O)[C@@H](CCC(=O)O)NC(=O)CN4CCN(CC(=O)O)CCN(CC(=O)O)CCN(CC(=O)O)CC4)CC3)(C(=O)N[C@@H](Cc3c[nH]c4ccccc34)C(N)=O)CC2)cc1F [Compound 166] ({DOTA}-[dE][Trx]F[azaGly]L[Api](Gly(N-(3-F-4-Me-benzyl)))W-NH2),< 10 nM
6,CCCCCCCCCCCC(=O)N[C@H](Cc1ccc(O)cc1)C(=O)N[C@@H](CCCCNC(=O)CN1CCN(CC(=O)O)CCN(CC(=O)O)CCN(CC(=O)O)CC1)C(=O)N[C@@H](CC(N)=O)C(=O)N[C@H](C(=O)N[C@@H](Cc1ccccc1)C(=O)NNC(=O)N[C@@H](CC(C)C)C(=O)NC1(C(=O)N[C@@H](Cc2ccc(O)cc2)C(N)=O)CCN(C(=N)N)CC1)[C@@H](C)O [Compound 331] (Lauroyl-[dY]K(DOTA)NTF[azaGly]L[Api(1-amidino)]Y-NH2),< 10 nM
7,CCCCCCCCCCCC(=O)N[C@H](Cc1ccc(O)cc1)C(=O)N[C@H](Cc1ccc2ccccc2c1)C(=O)N[C@@H](CC(N)=O)C(=O)N[C@H](C(=O)N[C@@H](Cc1ccccc1)C(=O)NNC(=O)N[C@@H](CC(C)C)C(=O)NC1(C(=O)N[C@@H](Cc2ccc(O)cc2)C(N)=O)CCN(C(=O)CNC)CC1)[C@@H](C)O [Compound 401] (Lauroyl-[dY][d2Nal]NTF[azaGly]L[Api](Sar)Y-NH2),< 10 nM
8,Cc1ccc(CNCC(=O)N2CCC(NC(=O)[C@H](CC(C)C)NC(=O)NNC(=O)[C@H](Cc3cccc(F)c3)NC(=O)[C@@H](NC(=O)[C@H](CC(N)=O)NC(=O)CCCCCNC(=O)CN3CCN(CC(=O)O)CCN(CC(=O)O)CCN(CC(=O)O)CC3)[C@@H](C)O)(C(=O)N[C@@H](Cc3ccncc3)C(N)=O)CC2)cc1F [Compound 169] ({DOTA-Ahx}-NT[Phe(3-F)][azaGly]L[Api](Gly(N-(3-F-4-Me-benzyl)))[4Pal]-NH2),< 10 nM
9,Cc1ccc(CNCC(=O)N2CCC(NC(=O)[C@H](CC(C)C)NC(=O)NNC(=O)[C@H](Cc3ccccc3)NC(=O)CN(C)C(=O)CN(C)C(=O)CN3CCN(CC(=O)O)CCN(CC(=O)O)CCN(CC(=O)O)CC3)(C(=O)N[C@@H](Cc3c[nH]c4ccccc34)C(N)=O)CC2)cc1F [Compound 17] ({DOTA}-[Sar][Sar]F[azaGly]L[Api](Gly(N-(3-F-4-Me-benzyl)))W-NH2),< 10 nM
10,Cc1ccc(CNCC(=O)N2CCC(NC(=O)c3cc(OCCNC(=O)[C@H](Cc4ccccc4)NC(=O)CCCCCNC(=O)CN4CCN(CC(=O)O)CCN(CC(=O)O)CCN(CC(=O)O)CC4)c(-c4ccccc4)cc3C)(C(=O)N[C@@H](Cc3c[nH]c4ccccc34)C(N)=O)CC2)cc1F [Compound 282],> 100 nM

# Second part, the compound after the results:
row,Ki,SMILES
1,10 to 100 nM,CC(C)C[C@H](NC(=O)NNC(=O)[C@H](Cc1ccccc1)NC(=O)[C@@H](NC(=O)[C@H](CC(N)=O)NC(=O)[C@@H](Cc1ccc2ccccc2c1)NC(=O)[C@@H](Cc1ccc(O)cc1)NC(=O)CCCCCNC(=O)CN1CCN(CC(=O)O)CCN(CC(=O)O)CCN(CC(=O)O)CC1)[C@@H](C)O)C(=O)NC1(C(=O)N[C@H](Cc2c[nH]c3ccccc23)C(N)=O)CCN(C(=O)CNCc2ccc3ccccc3c2)CC1 [Compound 376] ({DOTA-Ahx}-[dY][d2Nal]NTF[azaGly]L[Api](X5)[dW]-NH2)
2,< 10 nM,CNC(=N)N1CCC(NC(=O)[C@H](CC(C)C)NC(=O)NNC(=O)[C@H](Cc2ccccc2)NC(=O)[C@@H](NC(=O)[C@H](CC(N)=O)NC(=O)[C@@H](Cc2c[nH]c3ccccc23)NC(=O)[C@@H](Cc2ccc(O)cc2)NC(=O)CCCCCNC(=O)CN2CCN(CC(=O)O)CCN(CC(=O)O)CCN(CC(=O)O)CC2)[C@@H](C)O)(C(=O)N[C@@H](Cc2c[nH]c3ccccc23)C(N)=O)CC1 [Compound 91] ({DOTA-Ahx}-[dY][dW]NTF[azaGly]L[X3]W-NH2)
3,< 10 nM,CC(C)C[C@H](NC(=O)NNC(=O)[C@H](Cc1ccccc1)NC(=O)[C@@H](NC(=O)[C@H](CC(N)=O)NC(=O)[C@@H](Cc1ccc2ccccc2c1)NC(=O)[C@@H](Cc1ccc(O)cc1)NC(=O)CCCCCNC(=O)CN1CCN(CC(=O)O)CCN(CC(=O)O)CCN(CC(=O)O)CC1)[C@@H](C)O)C(=O)NC1(C(=O)N[C@@H](Cc2c[nH]c3ccccc23)C(N)=O)CCN(C(=N)N)CC1 [Compound 269] ({DOTA-Ahx}-[dY][d2Nal]NTF[azaGly]L[Api(1-amidino)]W-NH2)
4,< 10 nM,Cc1ccc(CNCC(=O)N2CCC(NC(=O)[C@H](CC(C)C)NC(=O)NNC(=O)[C@H](Cc3ccccc3)NC(=O)[C@H](C)NC(=O)[C@H](CC(N)=O)NC(=O)[C@@H](Cc3c[nH]c4ccccc34)NC(=O)[C@@H](Cc3ccc(O)cc3)NC(=O)CCCCCNC(=O)CN3CCN(CC(=O)O)CCN(CC(=O)O)CCN(CC(=O)O)CC3)(C(=O)N[C@@H](CC(C)C)C(N)=O)CC2)cc1F [Compound 113] ({DOTA-Ahx}-[dY][dW]NAF[azaGly]L[Api](Gly(N-(3-F-4-Me-benzyl)))L-NH2)
5,< 10 nM,CC(=O)N[C@H](Cc1ccc(O)cc1)C(=O)N[C@@H](CCCCNC(=O)CN1CCN(CC(=O)O)CCN(CC(=O)O)CCN(CC(=O)O)CC1)C(=O)N[C@@H](CC(N)=O)C(=O)N[C@H](C(=O)N[C@@H](Cc1ccccc1)C(=O)NNC(=O)N[C@@H](CC(C)C)C(=O)NC1(C(=O)N[C@@H](Cc2c[nH]c3ccccc23)C(N)=O)CCN(C(=O)CNCc2ccc(C)c(F)c2)CC1)[C@@H](C)O [Compound 380] (Ac-[dY]K(DOTA)NTF[azaGly]L[Api](Gly(N-(3-F-4-Me-benzyl)))W-NH2)
